COc1ccc(-n2nc(C(N)=O)c3c2C(=O)N(c2ccc(N4CCCCC4=O)cc2)CC3)cc1
solubility (mole fraction)
Settings | 288.15 K | 293.15 K | 298.15 K | 303.15 K | 308.15 K | 313.15 K | 318.15 K | 323.15 K | 328.15 K
in acetone | 0.00024 | 0.000276 | 0.00032 | 0.000377 | 0.000436 | 0.00051 | 0.000584 | 0.000669 | 0.000754
in ethanol | 0.000112 | 0.000144 | 0.00018 | 0.00022 | 0.000268 | 0.00033 | 0.000402 | 0.000474 | 0.000572
in isopropanol | 6.12e-05 | 7.67e-05 | 9.95e-05 | 0.000133 | 0.000167 | 0.000214 | 0.000271 | 0.00033 | 0.000404
in methanol | 0.000327 | 0.000416 | 0.00053 | 0.000669 | 0.000842 | 0.00104 | 0.00128 | 0.00156 | 0.00188
in water | 9.68e-06 | 1.13e-05 | 1.39e-05 | 1.67e-05 | 1.95e-05 | 2.31e-05 | 2.74e-05 | 3.19e-05 | 3.72e-05

Reference: BigSolDB 2.1
